Values quoted from earlier work, collected in patent publication US20250161451A1, “ULTRASOUND-RESPONSIVE NANOSCALE DELIVERY PLATFORM FOR USE IN THE TREATMENT OF BIOFILM-ASSOCIATED DISEASES” (priority 2023, published 2025).

Test system: MRSA biofilms
Conditions: co-delivery with stimulated phase-shift nanodroplet platform, in vitro

For `CN[C@H](CC(C)C)C(=O)N[C@H]1C(=O)N[C@@H](CC(N)=O)C(=O)N[C@H]2C(=O)N[C@H]3C(=O)N[C@H](C(=O)N[C@H](C(=O)O)c4cc(O)cc(O)c4-c4cc3ccc4O)[C@H](O)c3ccc(c(Cl)c3)Oc3cc2cc(c3O[C@@H]2O[C@H](CO)[C@@H](O)[C@H](O)[C@H]2O[C@H]2C[C@](C)(N)[C@H](O)[C@H](C)O2)Oc2ccc(cc2Cl)[C@H]1O` [vancomycin], the “bactericidal effect on MRSA biofilms” value is listed as “strong but incomplete bactericidal effect”.
